Experimental data from article PMC9564220, “Dipeptidyl peptidase-4 inhibitory potentials of Glycyrrhiza uralensis and its bioactive compounds licochalcone A and licochalcone B: An in silico and in vitro study” (Frontiers in Molecular Biosciences, 2022).

Biological target: T1, Dipeptidyl peptidase-4 (DPP-4) (Homo sapiens, UniProt P27487)
T1 construct: gene DPP4
Experiment: fluorescence DPP-4 inhibitor screening kit (Sigma Aldrich), kinetic mode
Assay type: biochemical

T1 sequence (P27487 whole entry): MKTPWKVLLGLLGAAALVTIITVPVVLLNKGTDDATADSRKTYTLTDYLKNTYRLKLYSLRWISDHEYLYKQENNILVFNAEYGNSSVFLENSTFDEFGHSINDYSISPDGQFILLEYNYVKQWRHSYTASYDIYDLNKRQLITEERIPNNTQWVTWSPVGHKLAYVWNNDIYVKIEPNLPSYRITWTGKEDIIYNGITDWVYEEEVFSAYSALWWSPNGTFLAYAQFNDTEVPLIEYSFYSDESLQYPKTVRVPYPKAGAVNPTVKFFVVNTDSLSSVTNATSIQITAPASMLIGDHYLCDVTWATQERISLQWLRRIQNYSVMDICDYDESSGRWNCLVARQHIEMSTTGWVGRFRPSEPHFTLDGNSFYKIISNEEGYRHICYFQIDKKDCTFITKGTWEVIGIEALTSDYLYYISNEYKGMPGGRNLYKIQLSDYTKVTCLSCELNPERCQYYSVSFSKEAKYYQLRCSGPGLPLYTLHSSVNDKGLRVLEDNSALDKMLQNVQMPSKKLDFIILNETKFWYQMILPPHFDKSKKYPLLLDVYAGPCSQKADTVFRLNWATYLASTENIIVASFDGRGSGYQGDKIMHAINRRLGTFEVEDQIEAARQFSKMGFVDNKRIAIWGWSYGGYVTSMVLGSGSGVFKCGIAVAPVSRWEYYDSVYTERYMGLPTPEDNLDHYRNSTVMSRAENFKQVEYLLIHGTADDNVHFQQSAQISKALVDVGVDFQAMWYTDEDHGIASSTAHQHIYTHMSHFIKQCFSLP

| IC50 | Structure (SMILES) |
| --- | --- |
| ~348 µM | C=CC(C)(C)c1cc(/C=C/C(=O)c2ccc(O)cc2)c(OC)cc1O [LicA, licochalcone A] |
| ~798 µM | COc1c(/C=C/C(=O)c2ccc(O)cc2)ccc(O)c1O [LicB, licochalcone B] |
